US7456191B2, “N-Aryl-sulfoximine-substituted pyrimidines as CDK-and/or VEGF inhibitors, their production and use as pharmaceutical agents” (Schering AG, priority 2005, dated 2008)

Key:
[1] = test system: MCF7, hormone-independent human breast cancer cells; experiment: Proliferation assay, MCF7; format: cell-based; details: 96 h, 4 days, crystal violet
Excerpt: (§1) Cultivated human tumor cells (MCF7, hormone-independent human breast cancer cells, related to ATCC HTB22; NCI-H460, human non-small-cell lung cancer cells, ATCC HTB-177; DU 145, hormone-independent human prostate cancer cells, ATCC HTB-81; MaTu-MDR, hormone-independent, multiple pharmaceutical agent-resistant human breast cancer cells, EPO-GmbH, Berlin) were flattened out at a density of about 5000 cells/measuring point, depending on the growth rate of the respective cells, in a 96-well multititer plate in 200 μl of the corresponding growth medium. After 24 hours, the cells of one plate (zero-point plate) were colored with crystal violet (see below), while the medium of the other plates was replaced by fresh culture medium (200 μl), to which the test substances were added in various concentrations (0 μm, as well as in the range of 0.01-30 μm; the final concentration of the solvent dimethyl sulfoxide was 0.5%). The cells were incubated for 4 days in the presence of test substances. The cell proliferation was determined by coloring the cells with crystal violet: the cells were fixed by adding 20 μl/measuring point of an 11% glutaric aldehyde solution for 15 minutes at room temperature. After three washing cycles of the fixed cells with water, the plates were dried at room temperature. The cells were colored by adding 100 μl/measuring point of a 0.1% crystal violet solution (the pH was set at 3 by adding acetic acid). After three washing cycles of the colored cells with water, the plates were dried at room temperature. The dye was dissolved by adding 100 μl/measuring point of a 10% acetic acid solution. The extinction was determined by photometry at a wavelength of 595 nm. The change of cell growth, in percent, was calculated by normalization of the measured values to the extinction values of the zero-point plate (=0%) and the extinction of the untreated (0 μm) cells (=100%).

[2] = test system: NCI-H460, human non-small-cell lung cancer cells; experiment: Proliferation assay, H460; format: cell-based; details: NCI-H460, 96 h, 4 days, crystal violet
Excerpt: as §1

[3] = test system: DU 145, hormone-independent human prostate cancer cells; experiment: Proliferation assay, DU145; format: cell-based; details: DU-145, 96 h, 4 days, crystal violet
Excerpt: as §1

[4] = test system: MaTu-ADR; experiment: Proliferation assay, MaTu-ADR; format: cell-based; details: Homo sapiens, 96 h; MaTu-ADR cells, 4 days, crystal violet
[5] = target: T1, CDK2/CycE (Homo sapiens, UniProt P24941); experiment: CDK2/CycE kinase assay; format: biochemical; details: histone IIIS substrate, 0.5 μm ATP, 33P filter assay
T1 construct: GST; purchased ProQinase GmbH, Freiburg; host or cells: baculovirus-infected insect cells (Sf9)
Description: Recombinant CDK2- and CycE-GST-fusion proteins, purified from baculovirus-infected insect cells (Sf9), were purchased by ProQinase GmbH, Freiburg. Histone IIIs, which was used as a kinase substrate, was purchased by the Sigma Company.
(§2) CDK2/CycE (50 ng/measuring point) was incubated for 15 minutes at 22° C. in the presence of various concentrations of test substances (0 μm, as well as within the range of 0.01-100 μm) in assay buffer [50 mmol of tris/HCl, pH 8.0, 10 mmol of MgCl2, 0.1 mmol of Na ortho-vanadate, 1.0 mmol of dithiothreitol, 0.5 μm of adenosine triphosphate (ATP), 10 μg/measuring point of histone IIIS, 0.2 μCi/measuring point of ^33P-gamma ATP, 0.05% NP40, 12.5% dimethyl sulfoxide]. The reaction was stopped by adding EDTA solution (250 mmol, pH 8.0, 14 μl/measuring point).
(§3) From each reaction batch, 10 μl was applied to P30 filter strips (Wallac Company), and non-incorporated ^33P-ATP was removed by subjecting the filter strips to three washing cycles for 10 minutes each in 0.5% phosphoric acid. After the filter strips were dried for one hour at 70° C., the filter strips were covered with scintillator strips (MeltiLex™ A, Wallac Company) and baked for one hour at 90° C. The amount of incorporated ^33P (substrate phosphorylation) was determined by scintillation measurement in a gamma-radiation measuring device (Wallac).

[6] = target: T2, CDK1/CycB (Homo sapiens, UniProt P06493); experiment: CDK1/CycB kinase assay; format: biochemical; details: histone IIIS substrate, 0.5 μm ATP, 33P filter assay
T2 construct: GST; purchased ProQinase GmbH, Freiburg; host or cells: baculovirus-infected insect cells (Sf9)
Description: Recombinant CDK1- and CycB-GST-fusion proteins, purified from baculovirus-infected insect cells (Sf9), were purchased from ProQinase GmbH, Freiburg. Histone IIIS, used as a kinase substrate, is available commercially from the Sigma Company.
as §2, with “CDK1/CycB (200” for “CDK2/CycE (50”
as §3, with “33P-ATP” for “^33P-ATP”, “33P” for “^33P”

[7] = target: T3, VEGF receptor tyrosine kinase-2 (Homo sapiens, UniProt P35968); experiment: VEGF receptor-2 kinase assay; format: biochemical; details: poly-(Glu4Tyr) substrate, 8 μmol ATP, 33P filter assay; read-out: VEGF-R2 IC50
T3 construct: GST; made in house; host or cells: baculovirus-infected insect cells (Sf9)
Description: VEGF Receptor-2 Kinase Assay
Recombinant VEGF receptor tyrosine kinase-2 was purified as a GST fusion protein from baculovirus-infected insect cells (Sf9). Poly-(Glu4Tyr), which was used as a kinase substrate, was purchased by the Sigma Company. VEGF receptor tyrosine kinase (90 ng/measuring point) was incubated for 10 minutes at 22° C. in the presence of various concentrations of test substances (0 μm, as well as within the range of 0.001-30 μm) in 30 μl of assay buffer [40 mmol of Tris/HCl, […], 10 mmol of MgCl2, 1 mmol of MnCl2, 3 μmol of Na ortho-vanadate, 1.0 mmol of dithiothreitol, 8 μmol of adenosine trisphosphate (ATP), 27 μg/measuring point of poly-(Glu4Tyr), 0.2 μCi/measuring point of 33P-gamma ATP, 1% dimethyl sulfoxide]. The reaction was stopped by adding EDTA solution (250 mmol, pH 7.0, 10 μl/measuring point).
as §3, with “33P-ATP” for “^33P-ATP”, “33P” for “^33P”

[8] = target: Human Carboanhydrase-2 (Homo sapiens, UniProt P00918); experiment: Carboanhydrase assay; format: biochemical; details: 4-nitrophenyl acetate hydrolysis, 400 nm; read-out: Inhibition of Human Carboanhydrase-2 IC50
Description: 2 μl of the test compounds, dissolved in DMSO (100× the final concentration), in a concentration range of 0.03-10 μm (final), was pipetted as 4× determinations into the holes of a 96-hole microtiter plate. Holes that contained the solvent without test compounds were used as reference values (1. Holes without carboanhydrase for correction of the non-enzymatic hydrolysis of the substrate, and 2. Holes with carboanhydrase for determining the activity of the non-inhibited enzyme).
188 μl of assay buffer (10 mmol of Tris/HCl, pH 7.4, 80 mmol of NaCl), with or without 3 units/hole on carboanhydrase I or II, was pipetted into the holes of the microtiter plate.

T2 sequence (P06493 whole entry): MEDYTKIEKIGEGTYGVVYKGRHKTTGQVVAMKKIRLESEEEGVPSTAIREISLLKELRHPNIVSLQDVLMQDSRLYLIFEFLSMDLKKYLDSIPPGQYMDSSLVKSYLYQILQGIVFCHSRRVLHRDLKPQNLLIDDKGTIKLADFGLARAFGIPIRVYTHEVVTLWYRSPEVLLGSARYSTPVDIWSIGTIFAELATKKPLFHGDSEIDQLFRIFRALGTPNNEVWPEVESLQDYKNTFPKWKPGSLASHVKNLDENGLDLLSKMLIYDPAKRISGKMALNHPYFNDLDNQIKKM
T2 sequence (P14635 whole entry partner): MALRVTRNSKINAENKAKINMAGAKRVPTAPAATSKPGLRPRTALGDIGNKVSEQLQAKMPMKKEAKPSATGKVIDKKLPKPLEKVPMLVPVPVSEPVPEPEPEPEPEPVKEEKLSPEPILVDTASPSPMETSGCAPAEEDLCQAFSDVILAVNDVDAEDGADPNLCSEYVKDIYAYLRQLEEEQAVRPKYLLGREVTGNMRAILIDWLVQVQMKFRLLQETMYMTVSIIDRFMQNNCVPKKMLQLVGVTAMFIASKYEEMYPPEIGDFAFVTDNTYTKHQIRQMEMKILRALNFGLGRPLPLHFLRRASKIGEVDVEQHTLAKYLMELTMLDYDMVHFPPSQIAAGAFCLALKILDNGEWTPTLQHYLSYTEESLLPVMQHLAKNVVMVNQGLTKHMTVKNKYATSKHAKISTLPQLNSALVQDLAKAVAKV
T3 sequence (P35968 20-1356): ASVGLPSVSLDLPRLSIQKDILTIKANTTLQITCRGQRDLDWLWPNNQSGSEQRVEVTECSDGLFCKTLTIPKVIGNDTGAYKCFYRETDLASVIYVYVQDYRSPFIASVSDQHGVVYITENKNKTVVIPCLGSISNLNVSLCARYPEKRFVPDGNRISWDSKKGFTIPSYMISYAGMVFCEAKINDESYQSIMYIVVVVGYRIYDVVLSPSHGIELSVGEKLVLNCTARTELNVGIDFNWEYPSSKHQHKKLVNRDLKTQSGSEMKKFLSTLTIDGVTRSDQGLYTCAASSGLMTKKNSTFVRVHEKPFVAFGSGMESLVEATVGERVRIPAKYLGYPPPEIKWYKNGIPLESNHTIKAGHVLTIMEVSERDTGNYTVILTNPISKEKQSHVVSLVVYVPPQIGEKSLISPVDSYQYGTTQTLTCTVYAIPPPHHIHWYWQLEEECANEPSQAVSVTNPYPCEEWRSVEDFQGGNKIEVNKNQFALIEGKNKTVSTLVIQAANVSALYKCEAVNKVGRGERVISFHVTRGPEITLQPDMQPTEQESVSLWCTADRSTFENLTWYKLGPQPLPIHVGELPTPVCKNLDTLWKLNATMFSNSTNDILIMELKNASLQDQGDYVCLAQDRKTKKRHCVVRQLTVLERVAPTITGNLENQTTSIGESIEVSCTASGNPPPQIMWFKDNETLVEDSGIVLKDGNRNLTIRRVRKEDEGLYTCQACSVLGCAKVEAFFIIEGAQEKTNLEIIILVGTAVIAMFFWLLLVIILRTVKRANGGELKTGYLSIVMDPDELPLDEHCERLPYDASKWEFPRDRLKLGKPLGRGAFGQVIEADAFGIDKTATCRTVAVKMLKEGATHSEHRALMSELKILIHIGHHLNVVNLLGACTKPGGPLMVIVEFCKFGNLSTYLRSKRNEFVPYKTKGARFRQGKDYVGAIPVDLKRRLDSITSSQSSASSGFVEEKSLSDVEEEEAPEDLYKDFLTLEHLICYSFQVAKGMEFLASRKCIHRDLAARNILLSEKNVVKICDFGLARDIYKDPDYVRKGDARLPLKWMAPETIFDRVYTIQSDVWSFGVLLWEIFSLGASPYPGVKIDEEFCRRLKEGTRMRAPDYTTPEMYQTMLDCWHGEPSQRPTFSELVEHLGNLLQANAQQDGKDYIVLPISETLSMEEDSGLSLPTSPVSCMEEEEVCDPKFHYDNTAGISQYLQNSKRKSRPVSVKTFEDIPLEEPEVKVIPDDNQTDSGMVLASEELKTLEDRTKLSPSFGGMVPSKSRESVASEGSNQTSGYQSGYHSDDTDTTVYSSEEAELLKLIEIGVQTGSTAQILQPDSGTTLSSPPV

| Compound | IC50 [1] [µM] | IC50 [2] [µM] | IC50 [3] [µM] | IC50 [4] [µM] | IC50 [5] [µM] | IC50 [6] [µM] | IC50 [7] [µM] | IC50 [8] [µM] |
| --- | --- | --- | --- | --- | --- | --- | --- | --- |
| C[C@@H](Nc1nc(Nc2ccc(N=S(C)(C)=O)cc2)ncc1Br)C(C)(C)O [Example 1, N-{4-[(5-Bromo-4-{[(R)-2-hydroxy-1,2-dimethylpropyl]amino}-pyrimidin-2-yl)amino]phenyl}-S,S-dimethylsulfoximide] | 0.4 | 0.5 | 0.6 | 0.8 | 0.027 | 0.13 | 0.074 | > 10 |
| C[C@@H](O)[C@@H](C)Nc1nc(Nc2ccc(N=S(C)(C)=O)cc2)ncc1Br [Example 2, N-{4-[(5-Bromo-4-{[(1R,2R)-2-hydroxy-1-methylpropyl]amino}-pyrimidin-2-yl)amino]phenyl}-S,S-dimethylsulfoximide] | 0.6 | 0.8 | 1 | 0.9 | 0.011 | 0.032 | 0.027 | > 10 |
| C[C@@H](O)[C@@H](C)Oc1nc(Nc2ccc(N=S(C)(C)=O)cc2)ncc1Br [Example 3, N-{4-[(5-Bromo-4-{[(1R,2R)-2-hydroxy-1-methylpropyl]oxy}-pyrimidin-2-yl)amino]phenyl}S,S-dimethylsulfoximide] | 0.3 | 0.7 | 1 | 0.5 | 0.012 | 0.028 | 0.044 | > 10 |
| CC(C)[C@H](CO)Nc1nc(Nc2ccc(N=S(C)(C)=O)cc2)ncc1I [Example 4, N-{4-[(4-{[(R)-1-(Hydroxymethyl)-2-methylpropyl]amino}-5-iodopyrimidin-2-yl)amino]phenyl}-S,S-dimethylsulfoximide] | 2.2 | – | – | – | 0.2 | – | 0.088 | – |
| Cc1cccc(Nc2nc(Nc3ccc(N=S(C)(C)=O)cc3)ncc2Br)n1 [Example 5, N-[4-({5-Bromo-4-[(6-methyl-2-pyridyl)amino]pyrimidin-2-yl}amino)phenyl]-S,S-dimethylsulfoximide] | 0.7 | – | – | – | 0.34 | 0.49 | 0.18 | – |
| CS(C)(=O)=Nc1ccc(Nc2ncc(Br)c(Nc3ccccc3)n2)cc1 [Example 6, N-{4-[(4-Anilino-5-bromopyrimidin-2-yl)amino]phenyl}-S,S-dimethylsulfoximide] | 0.5 | 0.4 | 0.3 | 0.3 | – | – | 0.073 | – |
| C[C@H](CO)Nc1nc(Nc2ccc(N=S(C)(C)=O)cc2)ncc1[N+](=O)[O-] [Example 7, N-{4-[(4-{[(R)-2-Hydroxy-1-methylethyl]amino}-5-nitropyrimidin-2-yl)amino]phenyl}-S,S-dimethylsulfoximide] | – | – | – | – | – | – | 0.2 | – |
| C#CCOc1nc(Nc2ccc(N=S(C)(C)=O)cc2)ncc1C(F)(F)F [Example 9, S,S-Dimethyl-N-(4-{[4-(prop-2-yn-1-yloxy)-5-(trifluoromethyl)pyrimidin-2-yl]amino}phenyl)sulfoximide] | – | – | – | – | 0.26 | 0.67 | 0.14 | – |
| C#CCNc1nc(Nc2ccc(N=S(C)(C)=O)cc2)ncc1C(F)(F)F [Example 10, S,S-Dimethyl-N-(4-{[4-(prop-2-yn-1-ylamino)-5-(trifluoromethyl)pyrimidin-2-yl]amino}phenyl)sulfoximide] | – | – | – | – | 0.22 | 0.4 | 0.16 | – |
| CS(C)(=O)=Nc1ccc(Nc2ncc(Br)c(NC3(CO)CCCC3)n2)cc1 [Example 11, N-{4-[(5-Bromo-4-{[1-(hydroxymethyl)cyclopentyl]amino}pyrimidin-2-yl)amino]phenyl}-S,S-dimethylsulfoximide] | – | – | – | – | 0.68 | – | 0.054 | – |
| CS(C)(=O)=Nc1ccc(Nc2ncc(Br)c(N[C@H]3CCCC[C@@H]3O)n2)cc1 [Example 12, N-{4-[(5-Bromo-4-{[(1S,2S)-2-hydroxycyclohexyl]amino}pyrimidin-2-yl)amino]phenyl}S,S-dimethylsulfoximide] | – | – | – | – | 0.46 | – | 0.28 | – |
| CS(C)(=O)=Nc1ccc(Nc2ncc(Br)c(N[C@@H]3CCOC3)n2)cc1 [Example 13, N-[4-({5-Bromo-4-[(R)-(2,3,4,5-tetrahydrofuran-3-yl)amino]pyrimidin-2-yl}amino)phenyl]-S,S-dimethylsulfoximide] | – | – | – | – | – | – | 0.042 | – |
